Assay results: publication PMC8921294, “Inhibition of mitochondrial LonP1 protease by allosteric blockade of ATP binding and hydrolysis via CDDO and its derivatives” (The Journal of Biological Chemistry, 2022)
Changes are numbered by the printed parent chain.

Experiments:
[1] = molecular target: T1, LonP1 F547A/C637V (Homo sapiens, UniProt P36776, C637V/F547A); assay: Endpoint ATPase assay, LonP1 F547A/C637V; type: biochemical
T1 construct: hexa-histidine (N); made in house; host or cells: Rosetta 2 E. coli
T1 sequence (P36776 68-959 F547A/C637V): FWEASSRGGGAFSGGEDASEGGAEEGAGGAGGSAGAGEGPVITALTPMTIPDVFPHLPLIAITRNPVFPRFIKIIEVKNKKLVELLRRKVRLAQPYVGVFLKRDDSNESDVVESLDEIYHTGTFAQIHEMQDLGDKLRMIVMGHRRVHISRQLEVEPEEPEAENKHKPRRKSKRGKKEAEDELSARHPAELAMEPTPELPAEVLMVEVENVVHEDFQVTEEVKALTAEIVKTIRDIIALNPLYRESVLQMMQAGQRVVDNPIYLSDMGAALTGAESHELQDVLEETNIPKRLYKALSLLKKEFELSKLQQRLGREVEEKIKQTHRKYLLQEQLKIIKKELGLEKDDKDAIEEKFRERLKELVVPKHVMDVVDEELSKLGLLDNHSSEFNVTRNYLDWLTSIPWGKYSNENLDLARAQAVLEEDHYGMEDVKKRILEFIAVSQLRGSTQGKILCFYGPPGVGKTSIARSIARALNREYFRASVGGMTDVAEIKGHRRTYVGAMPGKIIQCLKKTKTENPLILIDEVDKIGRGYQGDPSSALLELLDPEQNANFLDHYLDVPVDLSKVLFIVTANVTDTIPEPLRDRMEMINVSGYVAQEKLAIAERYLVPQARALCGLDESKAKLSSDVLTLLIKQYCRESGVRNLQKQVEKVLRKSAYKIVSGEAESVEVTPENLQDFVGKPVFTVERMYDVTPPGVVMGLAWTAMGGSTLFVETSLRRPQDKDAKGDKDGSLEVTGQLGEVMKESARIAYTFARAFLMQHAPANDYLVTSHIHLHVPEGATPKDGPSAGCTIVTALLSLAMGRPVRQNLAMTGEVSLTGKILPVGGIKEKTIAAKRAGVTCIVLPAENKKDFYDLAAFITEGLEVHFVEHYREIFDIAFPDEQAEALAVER
Description: (§1) Human mitochondrial LonP1 and mutants lacking the predicted mitochondrial targeting sequence were fused to an N-terminal hexa-histidine affinity tag, expressed in Rosetta 2 E. Coli, and purified using a nickel agarose column as previously described ([72]) and protein concentration and buffer exchange carried out using Amicon Ultra centrifugal filtration. LonP1 mutant constructs were obtained from the PCR-based QuikChange Site-Directed Mutagenesis Kit.
(§2) ADP-Glo (Promega) assays were performed according to the manufacturer's protocols. Purified wild-type or mutant LonP1 (400 nM monomer), the 26S proteasome (3 nM), or no enzyme controls were preincubated in 96-well plates (60 min, 25 °C) with ten different concentrations of CDDO and its derivatives, TP-82, enoxolone (5 μM) or DMSO vehicle control in buffer (40 mM Tris-HCl (pH 7.5), 20 mM MgCl2, 0.1 mg/ml BSA and 5% DMSO). The 26S and 20S proteasome were also assayed at 0, 0.75, 1.5, 3, 6, and 12 nM in the absence of CDDO derivatives. […] Assay reagents were used to quench further ATPase activity and generate luminescence signals proportional to the concentration of ADP formed. Background (no enzyme control) luminescence values were subtracted, and resultant values were reported as a percentage of the no drug control (100%). […]

[2] = molecular target: T2, LonP1 C576S (Homo sapiens, UniProt P36776, C576S); assay: Endpoint ATPase assay, LonP1 C576S; type: biochemical
T2 construct: hexa-histidine (N); made in house; host or cells: Rosetta 2 E. coli
T2 sequence (P36776 68-959 C576S): T1 sequence (P36776 68-959 F547A/C637V) with A480F, C509S, V570C
Description: as §1, §2

Fold increase in inhibition compared with WT [1]: 7.4
IC50 ([1]; end-point ATPase assay, read-out: CDDO IC50): 1.9 ± 0.3 µM
Fold increase in inhibition compared with WT [2]: 1.2
IC50 ([2]; end-point ATPase assay, N = 1, read-out: CDDO IC50): 11.9 µM
Structure (SMILES): CC1(C)CC[C@]2(C(=O)O)CC[C@]3(C)[C@H](C(=O)C=C4[C@@]5(C)C=C(C#N)C(=O)C(C)(C)[C@@H]5CC[C@]43C)[C@@H]2C1 [CDDO, 2-cyano-3,12-dioxooleana-1,9(11)-dien-28-oic acid]
